Legend:
[1] = tested on: TIFA-TdT THP1 cells; assay: TIFAsome formation assay; type: cell-based, human
Description: THP1-TIFA-tdTomato cells (1*10^6) were stimulated with various human plasma samples (100 μl) for 30 mins in a 37° C. water bath in final volume of 200 μl. Cells were harvested, washed with PBS+2% FBS+2 mM EDTA (MACS buffer) and fixed with 4% Paraformaldehyde (PFA, Cat no. 15710, Electron Microscopy Sciences). After fixation, cells were washed again and then resuspended in 50 μl MACS buffer. Cells were then analyzed for TIFAsome formation on an Amnis Imagestream Mk II Imaging Flow Cytometer ISX-100 (Luminex) according to the manufacturer's instructions. Downstream analysis was performed in IDEAS analysis software (Amnis). TIFAsome positive cells were identified by gating on Mean Pixel Intensity and Max Pixel Intensity for bright puncta analysis using the IDEAS Image Data Exploration and Analysis Software. A standard curve was prepared by calculating % TIFAsome positive cells using samples which were stimulated with serial increasing doses of ADP-heptose covering the concentration range of 10 to 100,000 ng/ml. […]
THP1-TIFA-tdTomato-GFP cells were suspended at 1×10^6 cells/mL and treated with either human plasma samples (50 μl) in final volume of 200 μl for 30 minutes, or the inhibitor for 1 hour to allow for entry into the cell and then stimulated with ADP-heptose for 30 minutes. […] Images were acquired using a Nikon Ni-E Upright widefield fluorescent scope and analyzed using Nikon Elements.

[2] = tested on: MDS CD34+ HSPCs; assay: Immunoblot of NF-κB activation in CD34+ HSPCs; type: cell-based, human
Description: (§1) Human CD34+ and MDS patient cells were maintained in StemSpan Serum-Free Expansion Media (Cat no. #09650, Stemcell Technologies) supplemented with 10 ng/ml of recombinant human stem cell factor (SCF) (Cat no. 300-07-50UG, PeproTech), recombinant human thrombopoietin (TPO) (Cat no. 300-18-50UG, PeproTech), recombinant human FLT3 ligand (FLT3L) (Cat no. 300-19-50UG, PeproTech), recombinant human interleukin-3 (IL-3) (Cat no. 200-03-50UG, PeproTech), and recombinant human interleukin-6 (IL-6) (Cat no. 200-06-50UG, PeproTech), as previously described. Human CD34+ cells from healthy individuals were obtained from the Yale Cooperative Center of Excellence in Hematology (YCCEH). […]
(§2) Protein concentration was evaluated by bicinchoninic acid (BCA) assay (Pierce, Cat #23225). SDS sample buffer was added to the lysates and the proteins were separated by SDS-polyacrylamide gel electrophoresis, transferred to PVDF or nitrocellulose membranes (BIO-RAD, Cat #1620112), and analyzed by immunoblotting. […] Membranes were visualized using ECL Western Blotting Substrate (Pierce, #32106) or SuperSignal West Femto Substrate (Thermo Scientific, #34096), imaged on a BIO-RAD ChemiDoc Touch Imaging system and analyzed with Image lab software 6.0.1 (Biorad) or Image J (22930834).

[3] = tested on: healthy donor cells; assay: Immunoblot of NF-κB activation in CD34+ HSPCs; type: cell-based, human
Description: as §1, §2

[4] = tested on: healthy BM cells; assay: Xenograft of healthy cells in NSG mice treated with ADP-heptose; type: in vivo, human; conditions: immunocompromised mice
Description: NOD.Cg-Prkdc^scidIl2rg^tm1Wj1/SzJ (NSG)^75 were bred and maintained by the CCHMC Comprehensive Mouse Core. For patient derived xenografts, NSG mice (sub-lethally conditioned with 2 Gy of whole-body irradiation) were injected tail vein with healthy CD34+ cells (1×10^6 cells per mouse) and MDS patient cells (5×10^6 cells per mouse) in 200 μl of sterile PBS. Mice were then given sterile water or ADP-heptose (0.5 mg/kg) dissolved in sterile water at the indicated times. Mice were monitored for human engraftment in BM aspirates Briefly, 1×10^6 BM cells from each sample were incubated with huCD45 (Cat no. 555485, BDPharmingen) and huCD33 (Cat no. 555450, BDPharmingen) antibodies diluted 1:100 in a solution of PBS, 0.2% FBS for 30 minutes on ice. Cells were washed once with PBS, resuspended in PBS with 0.2% FBS, and immediately analyzed by flow cytometry.

[5] = tested on: Dnmt3a^−/−; Alpk1^−/− HSPCs; assay: NF-κB activation in vitro (immunoblot); type: cell-based, mouse

SMILES: Nc1ncnc2c1ncn2[C@@H]1O[C@H](COP(=O)(O)OP(=O)(O)O[C@@H]2O[C@H]([C@H](O)CO)[C@@H](O)[C@H](O)[C@@H]2O)[C@@H](O)[C@H]1O [ADP-heptose, ADP-D-glycero-β-D-manno-heptose]
- TIFAsome formation (discrete puncta in the cytoplasm) [1]: rapidly induce TIFAsome formation
- TIFA-dependent activation of NF-κB (phosphorylated IKKα/β and RelA) [2]: able to induce TIFA-dependent activation of NF-κB
- TIFA-dependent activation of NF-κB (phosphorylated IKKα/β and RelA) [3]: not in healthy donor cells
- engraftment of healthy BM cells [4]: no effect
- NF-κB activation upon ADP-heptose stimulation [5]: unable to activate NF-κB
